From PubChem BioAssay (NCI)
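Five concentrations, 48 hours, 96-well plates. At the GI50, growth is halved. At the TGI there is no net growth.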 Where a SMILES comes first, the peptide text is derived from it. [ ]: non-standard residue; d: D form. The star is where a group is joined. X13 = OC[C@H](CC1CCCCC1)N*; dIva = CC[C@@](C)(N)C(=O)O; Aib = CC(C)(N)C(=O)O

Tests used:
Test in all cases: NCI-60 cell line screen, 48 h; in the data active = GI50 below about 0.43 µM; inactive = the rest
SK-MEL-2 melanoma = test system: SK-MEL-2 melanoma
T-47D breast = test system: T-47D breast
MDA-MB-435 = test system: MDA-MB-435
NCI-H23 lung = test system: NCI-H23 lung
A498 renal = test system: A498 renal
K-562 leukemia = test system: K-562 leukemia
IGROV1 ovarian = test system: IGROV1 ovarian
KM12 colon = test system: KM12 colon
UACC-62 melanoma = test system: UACC-62 melanoma
SK-OV-3 ovarian = test system: SK-OV-3 ovarian
NCI-H226 lung = test system: NCI-H226 lung
UO-31 renal = test system: UO-31 renal
OVCAR-5 ovarian = test system: OVCAR-5 ovarian
MOLT-4 leukemia = test system: MOLT-4 leukemia
HOP-92 NSCLC = test system: HOP-92 NSCLC
OVCAR-3 ovarian = test system: OVCAR-3 ovarian
A549 NSCLC = test system: A549 NSCLC
CCRF-CEM leukemia = test system: CCRF-CEM leukemia
SK-MEL-28 melanoma = test system: SK-MEL-28 melanoma
EKVX NSCLC = test system: EKVX NSCLC
PC-3 prostate = test system: PC-3 prostate
ACHN renal = test system: ACHN renal
NCI/ADR-RES ovarian = test system: NCI/ADR-RES ovarian
SF-295 CNS = test system: SF-295 CNS
SW-620 colon = test system: SW-620 colon
MALME-3M melanoma = test system: MALME-3M melanoma
HCT-15 colon = test system: HCT-15 colon
SNB-19 CNS = test system: SNB-19 CNS
OVCAR-4 ovarian = test system: OVCAR-4 ovarian
HOP-62 NSCLC = test system: HOP-62 NSCLC
HCC-2998 colon = test system: HCC-2998 colon
LOX IMVI melanoma = test system: LOX IMVI melanoma
SF-268 CNS = test system: SF-268 CNS
SF-539 CNS = test system: SF-539 CNS
UACC-257 melanoma = test system: UACC-257 melanoma
RXF 393 renal = test system: RXF 393 renal
U251 CNS = test system: U251 CNS
COLO 205 colon = test system: COLO 205 colon
SNB-75 CNS = test system: SNB-75 CNS
TK-10 renal = test system: TK-10 renal
NCI-H522 lung = test system: NCI-H522 lung
MDA-MB-231 breast = test system: MDA-MB-231 breast
SR leukemia = test system: SR leukemia
HS 578T breast = test system: HS 578T breast
SK-MEL-5 melanoma = test system: SK-MEL-5 melanoma
SN12C renal = test system: SN12C renal
HT29 colon = test system: HT29 colon
MCF7 breast = test system: MCF7 breast
RPMI-8226 leukemia = test system: RPMI-8226 leukemia
OVCAR-8 ovarian = test system: OVCAR-8 ovarian
NCI-H460 lung = test system: NCI-H460 lung
HL-60(TB) leukemia = test system: HL-60(TB) leukemia

CC[C@@](C)(NC(=O)C(C)(C)NC(=O)[C@@H](NC(=O)[C@@H]1CCCN1C(=O)C(C)(C)NC(=O)[C@H](CC(C)C)NC(=O)CNC(=O)C(C)(C)NC(=O)[C@@H](NC(=O)C(C)(C)NC(=O)[C@H](CCC(N)=O)NC(=O)[C@H](C)NC(=O)C(C)(C)NC(=O)[C@H](C)NC(=O)C(C)(C)NC(=O)[C@H](C)NC(=O)C(C)(C)NC(C)=O)C(C)C)C(C)C)C(=O)N[C@@H](CCC(N)=O)C(=O)N[C@@H](CCC(N)=O)C(=O)N[C@H](CO)CC1CCCCC1 (Ac-[Aib]A[Aib]A[Aib]AQ[Aib]V[Aib]GL[Aib]PV[Aib][dIva]QQ-X13)
3980 nM: TGI (MALME-3M melanoma)
4840 nM: TGI (SK-MEL-5 melanoma)
active: GI50 (MCF7 breast) 281 nM | GI50 (RPMI-8226 leukemia) 198 nM
4020 nM: TGI (HL-60(TB) leukemia)
1870 nM: TGI (RPMI-8226 leukemia)
> 5000 nM: TGI (T-47D breast) | TGI (MDA-MB-435) | TGI (NCI-H23 lung) | TGI (A498 renal) | TGI (K-562 leukemia) | TGI (IGROV1 ovarian) | TGI (KM12 colon) | TGI (UACC-62 melanoma) | TGI (SK-OV-3 ovarian) | TGI (NCI-H226 lung) | TGI (UO-31 renal) | TGI (OVCAR-5 ovarian) | TGI (MOLT-4 leukemia) | TGI (OVCAR-3 ovarian) | TGI (A549 NSCLC) | TGI (CCRF-CEM leukemia) | TGI (SK-MEL-28 melanoma) | TGI (EKVX NSCLC) | TGI (PC-3 prostate) | TGI (ACHN renal) | TGI (NCI/ADR-RES ovarian) | TGI (SF-295 CNS) | TGI (SW-620 colon) | TGI (HCT-15 colon) | TGI (SNB-19 CNS) | TGI (OVCAR-4 ovarian) | TGI (HOP-62 NSCLC) | TGI (HCC-2998 colon) | TGI (LOX IMVI melanoma) | TGI (SF-268 CNS) | TGI (SF-539 CNS) | TGI (RXF 393 renal) | TGI (U251 CNS) | TGI (COLO 205 colon) | TGI (SNB-75 CNS) | TGI (TK-10 renal) | TGI (NCI-H522 lung) | TGI (MDA-MB-231 breast) | TGI (SR leukemia) | TGI (HS 578T breast) | TGI (SN12C renal) | TGI (HT29 colon) | TGI (MCF7 breast) | TGI (OVCAR-8 ovarian) | TGI (NCI-H460 lung)
4410 nM: TGI (UACC-257 melanoma)
3380 nM: TGI (HOP-92 NSCLC)
inactive: GI50 (SK-MEL-2 melanoma) 1220 nM | GI50 (T-47D breast) 1560 nM | GI50 (MDA-MB-435) 1550 nM | GI50 (NCI-H23 lung) 1060 nM | GI50 (A498 renal) 1390 nM | GI50 (K-562 leukemia) 1780 nM | GI50 (IGROV1 ovarian) 2650 nM | GI50 (KM12 colon) 1890 nM | GI50 (UACC-62 melanoma) 1860 nM | GI50 (SK-OV-3 ovarian) 1890 nM | GI50 (NCI-H226 lung) > 5000 nM | GI50 (UO-31 renal) > 5000 nM | GI50 (OVCAR-5 ovarian) 2840 nM | GI50 (MOLT-4 leukemia) 2650 nM | GI50 (HOP-92 NSCLC) 854 nM | GI50 (OVCAR-3 ovarian) 1250 nM | GI50 (A549 NSCLC) 3000 nM | GI50 (CCRF-CEM leukemia) 2790 nM | GI50 (SK-MEL-28 melanoma) 2040 nM | GI50 (EKVX NSCLC) > 5000 nM | GI50 (PC-3 prostate) 1320 nM | GI50 (ACHN renal) > 5000 nM | GI50 (NCI/ADR-RES ovarian) > 5000 nM | GI50 (SF-295 CNS) > 5000 nM | GI50 (SW-620 colon) 3650 nM | GI50 (MALME-3M melanoma) 1180 nM | GI50 (HCT-15 colon) > 5000 nM | GI50 (SNB-19 CNS) 1380 nM | GI50 (OVCAR-4 ovarian) 2820 nM | GI50 (HOP-62 NSCLC) > 5000 nM | GI50 (HCC-2998 colon) 2040 nM | GI50 (LOX IMVI melanoma) 1490 nM | GI50 (SF-268 CNS) 1740 nM | GI50 (SF-539 CNS) 1490 nM | GI50 (UACC-257 melanoma) 1000 nM | GI50 (RXF 393 renal) 1750 nM | GI50 (U251 CNS) 1490 nM | GI50 (COLO 205 colon) 1470 nM | GI50 (SNB-75 CNS) 1240 nM | GI50 (TK-10 renal) > 5000 nM | GI50 (NCI-H522 lung) 1280 nM | GI50 (MDA-MB-231 breast) 1530 nM | GI50 (SR leukemia) 2010 nM | GI50 (HS 578T breast) 1810 nM | GI50 (SK-MEL-5 melanoma) 1310 nM | GI50 (SN12C renal) 460 nM | GI50 (HT29 colon) 2250 nM | GI50 (OVCAR-8 ovarian) > 5000 nM | GI50 (NCI-H460 lung) 1600 nM | GI50 (HL-60(TB) leukemia) 1440 nM
3830 nM: TGI (SK-MEL-2 melanoma)
